According to PubChem BioAssay AID206 (DTP/NCI, 2004):
Values joined by “and” are separate entries in the source; they are usually repeats but may differ in a detail not shown here. Equal values may be shown once. Results filed as inconclusive are left out.

Test system: nude mice, HT29 intrarenal xenograft, tumor weight T/C
Assay: NCI In Vivo Anticancer Drug Screen. Data for tumor model HT29;CX-1 Human Adenocarcinoma (MER+) (intrarenal inoculation) in NU/NU Swiss (nude) mice
Conditions: endpoint: mean tumor weight change, higher = larger tumour
How it was run: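 Endpoint measured as tumor size or survival; ratio reported is treated group over vehicle controls.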

[1] = dose: 100.0 mg/kg/injection, schedule: Q01DX010 (sc), vehicle: saline with Tween-80
[2] = dose: 100.0 mg/kg/injection, schedule: Q04DX004 (sc), vehicle: saline
[3] = dose: 150.0 mg/kg/injection, schedule: Q04DX004 (sc), vehicle: Klucel (hydroxypropylcellulose) (HPC)
[4] = dose: 300.0 mg/kg/injection, schedule: Q04DX004 (sc), vehicle: Klucel (hydroxypropylcellulose) (HPC)
[5] = dose: 50.0 mg/kg/injection, schedule: Q01DX010 (sc), vehicle: saline
[6] = dose: 200.0 mg/kg/injection, schedule: Q01DX010 (sc), vehicle: saline
[7] = dose: 600.0 mg/kg/injection, schedule: Q04DX004 (sc), vehicle: Klucel (hydroxypropylcellulose) (HPC)
[8] = dose: 1200.0 mg/kg/injection, schedule: Q04DX004 (sc), vehicle: saline with Tween-80
[9] = dose: 150.0 mg/kg/injection, schedule: Q04DX004 (sc), vehicle: saline with Tween-80

Structure (SMILES): COc1cc2cc(c1Cl)N(C)C(=O)CC(OC(=O)CC(C)C)C1(C)OC1C(C)C1CC(O)(NC(=O)O1)C(OC)/C=C/C=C(C)C2 (stereo unspecified)
- T/C (dose: 125.0 micrograms/kg/injection, schedule: Q04DX004 (sc), vehicle: saline + alcohol): 87 % of control and 99 % of control
- T/C (dose: 500.0 micrograms/kg/injection, schedule: Q04DX004 (sc), vehicle: saline + alcohol): 60 % of control

Structure (SMILES): COc1cccc2c1C(=O)c1c(O)c3c(c(O)c1C2=O)C[C@@](O)(C(=O)COC(=O)c1cccnc1)C[C@@H]3OC1CC(N)C(O)C(C)O1 (stereo partly specified)
- T/C (dose: 6.0 mg/kg/injection, schedule: Q04DX004 (sc), vehicle: saline): 44 % of control and 65 % of control

Structure (SMILES): CC(=O)O[C@@H]1[C@@H](O)C2=C3[C@]4(C)[C@@H]1C(C)(C)C(=O)C[C@@H]4[C@]3(O)[C@H](OC(C)=O)[C@@]1(C[C@@H]1C)C2=O
- T/C (dose: 12.5 mg/kg/injection, schedule: Q01DX010 (sc), vehicle: saline with Tween-80): 77 % of control
- T/C (dose: 25.0 mg/kg/injection, schedule: Q01DX010 (sc), vehicle: saline with Tween-80): 122 % of control
- T/C (dose: 50.0 mg/kg/injection, schedule: Q01DX010 (sc), vehicle: saline with Tween-80): 26 % of control
- T/C [1]: 68 % of control

Structure (SMILES): COc1cc(Cc2nccc3cc(OC)c(OC)cc23)c(C(C)=O)c(OC)c1
- T/C (dose: 40.0 mg/kg/injection, schedule: Q01DX010 (sc), vehicle: saline): 35 % of control
- T/C (dose: 80.0 mg/kg/injection, schedule: Q01DX010 (sc), vehicle: saline): 50 % of control
- T/C (dose: 160.0 mg/kg/injection, schedule: Q01DX010 (sc), vehicle: saline): 19 % of control

Structure (SMILES): O=[N+]([O-])O.[Ga]
- T/C (dose: 50.0 mg/kg/injection, schedule: Q04DX004 (sc), vehicle: saline): 99 % of control
- T/C [2]: 66 % of control
- T/C (dose: 200.0 mg/kg/injection, schedule: Q04DX004 (sc), vehicle: saline): 80 % of control
- T/C (dose: 400.0 mg/kg/injection, schedule: Q04DX004 (sc), vehicle: saline): 103 % of control

Structure (SMILES): [N-]=[N+]=CC(=O)CCC(N)C(=O)O (stereo unspecified)
- T/C (dose: 0.1 mg/kg/injection, schedule: Q01DX010 (sc), vehicle: saline): 73 % of control
- T/C (dose: 0.2 mg/kg/injection, schedule: Q01DX010 (sc), vehicle: saline): 43 % of control

Structure (SMILES): C/C=C(\C)c1cc(=O)c2c(C)cc3c(c2o1)C(=O)c1c(O)c(C2CC(C)(N(C)C)C(O)C(C)O2)cc(C2CC(N(C)C)C(O)C(C)O2)c1C3=O (stereo unspecified)
- T/C (dose: 0.5 mg/kg/injection, schedule: Q04DX004 (sc), vehicle: saline): 78 % of control
- T/C (dose: 2.0 mg/kg/injection, schedule: Q04DX004 (sc), vehicle: saline): 112 % of control
- T/C (dose: 4.0 mg/kg/injection, schedule: Q04DX004 (sc), vehicle: saline): 82 % of control
- T/C (dose: 4.0 mg/kg/injection, schedule: Q04DX004 (sc), vehicle: suspension in saline): 104 % of control
- T/C (dose: 8.0 mg/kg/injection, schedule: Q04DX004 (sc), vehicle: suspension in saline): 64 % of control
- T/C (dose: 16.0 mg/kg/injection, schedule: Q04DX004 (sc), vehicle: suspension in saline): 90 % of control

Structure (SMILES): O=NN(CCCl)C(=O)Oc1ccc(OC(=O)N(CCCl)N=O)cc1
- T/C (dose: 37.5 mg/kg/injection, schedule: Q04DX004 (sc), vehicle: Klucel (hydroxypropylcellulose) (HPC)): 44 % of control
- T/C (dose: 75.0 mg/kg/injection, schedule: Q04DX004 (sc), vehicle: Klucel (hydroxypropylcellulose) (HPC)): 67 % of control
- T/C [3]: 29 % of control
- T/C [4]: 23 % of control

Structure (SMILES): CC1CC(C)CC(C)C(O)/C(C#N)=C/C=C/CC(C2CCCC2C(=O)O)OC(=O)CC(O)C(C)C1 (stereo unspecified)
- T/C (dose: 1.5 mg/kg/injection, schedule: Q04DX004 (sc), vehicle: Klucel (hydroxypropylcellulose) (HPC)): 87 % of control
- T/C (dose: 3.0 mg/kg/injection, schedule: Q04DX004 (sc), vehicle: Klucel (hydroxypropylcellulose) (HPC)): 76 % of control
- T/C (dose: 6.0 mg/kg/injection, schedule: Q04DX004 (sc), vehicle: Klucel (hydroxypropylcellulose) (HPC)): 40 % of control
- T/C (dose: 12.0 mg/kg/injection, schedule: Q04DX004 (sc), vehicle: Klucel (hydroxypropylcellulose) (HPC)): 69 % of control

Structure (SMILES): CNNCc1ccc(C(=O)NC(C)C)cc1
- T/C [5]: 194 % of control
- T/C [6]: 63 % of control and 77 % of control

Structure (SMILES): S=C=NCCc1ccccc1
- T/C [1]: 57 % of control (2×) and 61 % of control

Structure (SMILES): CN1CCc2c(c3ccccc3c3ccccc23)C1
- T/C [3]: 105 % of control
- T/C [4]: 80 % of control
- T/C [7]: 111 % of control

Structure (SMILES): COc1cccc(C2NC(=O)c3c(n[nH]c3N)S2)c1O (stereo unspecified)
- T/C [8]: 53 % of control
- T/C (dose: 2400.0 mg/kg/injection, schedule: Q04DX004 (sc), vehicle: saline with Tween-80): 117 % of control

Structure (SMILES): C[CH2][Ge]([CH2]C)[CH2]C.C[CH2][Ge]([CH2]C)[CH2]C.C[CH2][Ge]([CH2]C)[O][Ge]([CH2]C)[CH2]C
- T/C [9]: 112 % of control

Structure (SMILES): CCCC(=O)Nc1ncnc2c1ncn2C1OC2COP(=O)(O)OC2C1OC(=O)CCC (stereo unspecified)
- T/C (dose: 100.0 mg/kg/injection, schedule: Q01DX010 (sc), vehicle: saline): 106 % of control
- T/C [6]: 18 % of control
- T/C (dose: 400.0 mg/kg/injection, schedule: Q01DX010 (sc), vehicle: saline): 80 % of control
- T/C (dose: 800.0 mg/kg/injection, schedule: Q01DX010 (sc), vehicle: saline): 44 % of control

Structure (SMILES): CCc1ccccc1N1CCN(C(=O)c2cc(OC)c(OC)c(OC)c2)CC1
- T/C [4]: 57 % of control
- T/C [7]: 120 % of control
- T/C (dose: 1200.0 mg/kg/injection, schedule: Q04DX004 (sc), vehicle: Klucel (hydroxypropylcellulose) (HPC)): 84 % of control

Structure (SMILES): CC1(C)COCN1COC1CCCCC1
- T/C [2]: 34 % of control

Structure (SMILES): O=C(O)C1Cc2nc[nH]c2CN1CO (stereo unspecified)
- T/C (dose: 100.0 mg/kg/injection, schedule: Q04DX004 (sc), vehicle: saline with Tween-80): 90 % of control
- T/C (dose: 1600.0 mg/kg/injection, schedule: Q04DX004 (sc), vehicle: saline with Tween-80): 108 % of control

Structure (SMILES): Cc1cc(Nc2ccc3c(c2)OCO3)c2cc3c(cc2n1)OCO3
- T/C [4]: 79 % of control
- T/C [7]: 198 % of control

Structure (SMILES): COC(C(=O)C(O)C(C)O)C1Cc2cc3cc(OC4CC(OC(C)=O)C(OC5CC(O)C(OC)C(C)O5)C(C)O4)cc(O)c3c(O)c2C(=O)C1OC1CC(OC2CC(OC3CC(C)(O)C(OC(=O)C(C)C)C(C)O3)C(O)C(C)O2)C(O)C(C)O1 (stereo unspecified)
- T/C (dose: 0.5 mg/kg/injection, schedule: Q01DX010 (sc), vehicle: saline with Tween-80): 73 % of control
- T/C (dose: 1.0 mg/kg/injection, schedule: Q01DX010 (sc), vehicle: saline with Tween-80): 97 % of control
- T/C (dose: 1.0 mg/kg/injection, schedule: Q04DX004 (sc), vehicle: saline with Tween-80): 95 % of control
- T/C (dose: 2.0 mg/kg/injection, schedule: Q01DX010 (sc), vehicle: saline with Tween-80): 105 % of control
- T/C (dose: 2.0 mg/kg/injection, schedule: Q04DX004 (sc), vehicle: saline with Tween-80): 47 % of control
- T/C (dose: 4.0 mg/kg/injection, schedule: Q04DX004 (sc), vehicle: saline with Tween-80): 50 % of control

Structure (SMILES): COc1cc([C@@H]2c3cc4c(cc3[C@@H](OC3OC5COC(C)OC5C(O)C3O)[C@H]3COC(=O)[C@H]23)OCO4)cc(OC)c1O (stereo partly specified)
- T/C (dose: 4.0 mg/kg/injection, schedule: Q01DX010 (sc), vehicle: saline): 71 % of control
- T/C (dose: 32.0 mg/kg/injection, schedule: Q01DX010 (sc), vehicle: saline): 62 % of control

Structure (SMILES): CCOC(=O)c1[nH]c2cccc3c2c1CC(Br)C3=O (stereo unspecified)
- T/C [9]: 81 % of control
- T/C (dose: 300.0 mg/kg/injection, schedule: Q04DX004 (sc), vehicle: saline with Tween-80): 81 % of control
- T/C (dose: 600.0 mg/kg/injection, schedule: Q04DX004 (sc), vehicle: saline with Tween-80): 71 % of control
- T/C [8]: 71 % of control

Structure (SMILES): [Cl][Pt+2][Cl].[NH-]C1CCC1.[NH2-]
- T/C (dose: 6.25 mg/kg/injection, schedule: Q04DX004 (sc), vehicle: suspension in saline): 54 % of control
- T/C (dose: 12.5 mg/kg/injection, schedule: Q04DX004 (sc), vehicle: suspension in saline): 41 % of control
- T/C (dose: 25.0 mg/kg/injection, schedule: Q04DX004 (sc), vehicle: suspension in saline): 46 % of control

Structure (SMILES): C[CH2][Ge]1([CH2]C)[CH2]CC2(CCN(CCCN(C)C)C2)C[CH2]1
- T/C [5]: 99 % of control

Structure (SMILES): O=c1[nH]c(=O)c2nc(-c3cccnc3)cnc2[nH]1
- T/C (dose: 100.0 mg/kg/injection, schedule: Q04DX004 (sc), vehicle: Klucel (hydroxypropylcellulose) (HPC)): 68 % of control
- T/C (dose: 200.0 mg/kg/injection, schedule: Q04DX004 (sc), vehicle: Klucel (hydroxypropylcellulose) (HPC)): 85 % of control
- T/C (dose: 400.0 mg/kg/injection, schedule: Q04DX004 (sc), vehicle: Klucel (hydroxypropylcellulose) (HPC)): 102 % of control
- T/C (dose: 800.0 mg/kg/injection, schedule: Q04DX004 (sc), vehicle: Klucel (hydroxypropylcellulose) (HPC)): 77 % of control
